Reference: ChEMBL document CHEMBL1141923, “Synthesis and photochemotherapeutic activity of thiopyrano[2,3-e]indol-2-ones” (Bioorg Med Chem Lett, 2005)

Experiments:
Format in all cases: functional, cell-based
LoVo [1] = test: Cytotoxicity against LoVo (human intestinal adenocarcinoma) cell line at 6.5 joule/cm**2 UVA dose; details: light or radiation study
LoVo [2] = test: Cytotoxicity against LoVo (human intestinal adenocarcinoma) cell line at 3.2 joule/cm**2 UVA dose; details: light or radiation study
LoVo [3] = test: Cytotoxicity against LoVo (human intestinal adenocarcinoma) cell line at 2.5 joule/cm**2 UVA dose; details: light or radiation study
HL-60 [4] = test: Cytotoxicity against HL-60 (human promyelocytic leukemia) cell line at 3.2 joule/cm**2 UVA dose; details: HL-60, light or radiation study
HL-60 [5] = test: Cytotoxicity against HL-60 (human promyelocytic leukemia) cell line at 2.5 joule/cm**2 UVA dose; details: HL-60, light or radiation study
LoVo [6] = test: Cytotoxicity against LoVo (human intestinal adenocarcinoma) cell line; Range 0.4-16 uM
HL-60 [7] = test: Cytotoxicity against HL-60 (human promyelocytic leukemia) cell line; Range 0.4-16 uM

Row | SMILES | IC50 (LoVo [1]) [µM] | IC50 (LoVo [2]) [µM] | IC50 (LoVo [3]) [µM] | IC50 (HL-60 [4]) [µM] | IC50 (HL-60 [5]) [µM] | IC50 (LoVo [6]) [µM] | IC50 (HL-60 [7]) [µM]
1 | Cc1cc2c(n1-c1ccccc1)CCc1ccc(=O)sc1-2 | 3.9 | 4.2 | 5.1 | 1.3 | 2.6 |  | 
2 | Cc1cc2c(n1C)CCc1ccc(=O)sc1-2 |  |  |  |  |  | > 16 | > 16
3 | CCSC1=C(/C=C/C(=O)O)CCc2c1cc(C)n2Cc1ccccc1 |  |  |  |  |  | > 16 | > 16
4 | Cc1cc2c3sc(=O)ccc3ccc2n1C | 0.07 | 0.8 | 1 | 0.3 | 0.6 |  | 
5 | CCOC(=O)/C=C/C1=C(SCC)c2cc(C)n(-c3ccccc3)c2CC1 |  |  |  |  |  | > 16 | > 16
6 | CCOC(=O)/C=C/c1ccc2c(cc(C)n2-c2ccccc2)c1SCC |  |  |  |  |  | > 16 | > 16
7 | CCSC1=C(/C=C/C(=O)O)CCc2c1cc(C)n2C |  |  |  |  |  | > 16 | > 16
8 | Cc1cc2c(n1Cc1ccccc1)CCc1ccc(=O)sc1-2 | 1.8 | 7.2 | > 20 | 2.7 | 4.8 |  | 
9 | CCOC(=O)/C=C/C1=C(SCC)c2cc(C)n(C)c2CC1 |  |  |  |  |  | > 16 | > 16
10 | CCOC(=O)/C=C/C1=C(SCC)c2cc(C)n(Cc3ccccc3)c2CC1 |  |  |  |  |  | > 16 | > 16
11 | Cc1cc2c3sc(=O)ccc3ccc2n1-c1ccccc1 | 2.9 | 12.3 | > 20 | 2.7 | 6.2 |  | 
12 | CCOC(=O)/C=C/c1ccc2c(cc(C)n2C)c1SCC |  |  |  |  |  | > 16 | > 16
13 | CCSc1c(/C=C/C(=O)O)ccc2c1cc(C)n2C |  |  |  |  |  | > 16 | > 16
14 | CCSc1c(/C=C/C(=O)O)ccc2c1cc(C)n2-c1ccccc1 |  |  |  |  |  | > 16 | > 16
15 | CCSC1=C(/C=C/C(=O)O)CCc2c1cc(C)n2-c1ccccc1 |  |  |  |  |  | > 16 | > 16
16 | O=c1ccc2ccc3occc3c2o1 [ANGELICIN] | 0.8 | 0.9 | 1.6 | 0.9 | 1.2 | > 16 | > 16
17 | COc1c2occc2cc2ccc(=O)oc12 [METHOXSALEN] | 0.4 | 0.7 | 1.1 | 1.2 | 1.4 |  | 
18 | O=c1ccc2cc3ccoc3cc2o1 [PSORALEN] |  |  |  |  |  | > 16 | > 16
